Results published in PMC6222691, “Isoxazolidine Conjugates of N3-Substituted 6-Bromoquinazolinones—Synthesis, Anti-Varizella-Zoster Virus, and Anti-Cytomegalovirus Activity” (Molecules : A Journal of Synthetic Chemistry and Natural …, 2018).
Converted amounts (≈) assume the structure as drawn. Where two headings read alike, the source gives them in different places.

What was measured:
[1] = test system: human cytomegalovirus AD-169 Strain; assay: Antiviral activity against human cytomegalovirus AD-169 strain in HEL cell cultures; format: cell-based
[2] = test system: human cytomegalovirus Davis Strain; assay: Antiviral activity against human cytomegalovirus Davis strain in HEL cell cultures; format: cell-based
[3] = test system: human cytomegalovirus (HCMV); assay: Antiviral activity against HCMV, AD-169 and Davis strains (text summaries); format: cell-based; settings: Human betaherpesvirus 5, AD169; HEL cells; both AD-169 and Davis strains; read-out: EC50 against HCMV (range over AD-169 and Davis strains)
HEL cells = settings: minimum cytotoxic concentration
in vitro = settings: human
TK+ VZV Strain (OKA) = assay: microbe, parasite or virus in culture; format: cell-based, varicella-zoster virus; settings: Human alphaherpesvirus 3, HEL, read-out: Antiviral Activity EC50 TK+ VZV Strain (OKA)
TK− VZV Strain (07-1) = assay: microbe, parasite or virus in culture; format: cell-based, varicella-zoster virus; settings: Human alphaherpesvirus 3, HEL, read-out: Antiviral Activity EC50 TK− VZV Strain (07-1)
murine leukemia (L1210) = assay: Inhibition of proliferation of murine leukemia L1210 cells; format: cell-based; settings: Mus musculus, L1210, 48 h, read-out: IC50 L1210
human T-lymphocyte (CEM) = assay: Inhibition of proliferation of human T-lymphocyte CEM cells; format: cell-based; settings: 72 h, read-out: IC50 CEM
[4] = test system: human cervix carcinoma (HeLa); assay: Inhibition of proliferation of human cervix carcinoma HeLa cells; format: cell-based; settings: 96 h, read-out: IC50 HeLa
[5] = test system: immortalized human dermal microvascular endothelial cells (HMEC-1); assay: Inhibition of proliferation of HMEC-1 cells; format: cell-based; settings: HMEC-1, read-out: IC50 HMEC-1
[6] = test system: a wide variety of DNA and RNA viruses; assay: Antiviral screening against a wide variety of DNA and RNA viruses; format: cell-based
[7] = test system: L1210, CEM, HeLa, HMEC-1 cell lines; assay: Cytostatic activity against the tested cell lines; format: cell-based
influenza A virus (H5N1) = settings: cited from earlier work
[8] = test system: herpes simplex virus 1 (HSV-1); design: method as in PMID 21969760; settings: cited from earlier work
[9] = test system: herpes simplex virus 2 (HSV-2); design: method as in PMID 21969760; settings: cited from earlier work
vaccinia virus (VACV) = settings: cited from earlier work
vaccinia virus = settings: E6SM cell cultures; cited from earlier work
[10] = test system: tobacco mosaic virus (TMV); design: method as in PMID 18259148; settings: in vivo; cited from earlier work
PI4KIIIα = test system: PI4KIIIα; design: method as in PMID 23944386; settings: cited from earlier work
[11] = Human betaherpesvirus 5, AD169, HEL; read-out: Antiviral Activity EC50 AD-169 Strain
[12] = Human betaherpesvirus 5, HEL; read-out: Antiviral Activity EC50 Davis Strain

## Nc1ccn(C[C@@H](CO)OCP(=O)(O)O)c(=O)n1 [Cidofovir, reference compound]
[1]; [11]
  EC50: 1.5 ± 0.2 µM
[2]; [12]
  EC50: 1.7 ± 0.4 µM
[3]
  EC50: 1.5 to 1.7 µM
HEL cells; Table 3 (HCMV experiments)
  Cytotoxicity Cell Morphology MCC: >300 μM
In vitro
  CC50: > 300 µM

## CCOP(=O)(OCC)[C@H]1C[C@H](c2nc3ccc(Br)cc3c(=O)n2Cc2ccc([N+](=O)[O-])cc2)ON1C (relative stereo) [trans-11e, Diethyl trans-{5-[6-bromo-3-(4-nitrobenzyl)-4-oxo-3,4-dihydroquinazolin-2-yl]-2-methylisoxazolidin-3-yl}phosphonate]
TK+ VZV Strain (OKA)
  EC50: 6.84 µM
TK− VZV Strain (07-1)
  EC50: 7.51 µM
[1]; [11]
  EC50: > 20 µM
[2]; [12]
  EC50: > 20 µM
Murine leukemia (L1210)
  IC50: 18 µM
Human T-lymphocyte (CEM)
  IC50: 17 ± 12 µM
[4]
  IC50: 24 ± 9 µM
[5]
  IC50: 26 ± 6 µM
HEL cells; Table 2 (VZV experiments)
  Cytotoxicity Cell Morphology MCC: 20 μM
HEL cells; Table 3 (HCMV experiments)
  Cytotoxicity Cell Morphology MCC: 100 μM

## CCOP(=O)(OCC)[C@H]1C[C@H](c2nc3ccc(Br)cc3c(=O)[nH]2)ON1C (relative stereo) [trans-11a, Diethyl trans-[5-(6-bromo-4-oxo-3,4-dihydroquinazolin-2-yl)-2-methylisoxazolidin-3-yl]phosphonate]
TK+ VZV Strain (OKA)
  EC50: > 100 µM
TK− VZV Strain (07-1)
  EC50: 66.9 µM
[1]; [11]
  EC50: > 100 µM
[2]; [12]
  EC50: > 100 µM
Murine leukemia (L1210)
  IC50: 126 ± 19 µM
Human T-lymphocyte (CEM)
  IC50: 148 ± 2 µM
[4]
  IC50: 196 ± 20 µM
[5]
  IC50: 85 ± 13 µM
[6]
  Activity against tested viruses (in words): not active
[7]
  Inhibition of proliferation of the tested cell lines (in words): did not inhibit proliferation
HEL cells; Table 2 (VZV experiments)
  Cytotoxicity Cell Morphology MCC: >100 μM
HEL cells; Table 3 (HCMV experiments)
  Cytotoxicity Cell Morphology MCC: 100 μM

## O=c1[nH]cc(F)c(=O)[nH]1 [5-Fluorouracil, reference compound]
Murine leukemia (L1210); cell proliferation, two days
  IC50: 0.33 ± 0.17 µM
Human T-lymphocyte (CEM); cell proliferation, three days
  IC50: 18 ± 5 µM
[4]; cell proliferation, four days
  IC50: 0.54 ± 0.12 µM

## CCNC(=S)N/N=C/c1nc2ccc(I)cc2c(=O)n1-c1cccc(C(F)(F)F)c1 [compound 5]
Influenza A virus (H5N1)
  inhibition rate against H5N1: 47%

## Nc1nc(O)c2ncn(COC(CO)CO)c2n1 [Ganciclovir, reference compound]
[1]; Human betaherpesvirus 5, AD169, HEL, read-out: Antiviral Activity EC50 AD-169 Strain
  EC50: 16.9 ± 6.9 µM
[2]; Human betaherpesvirus 5, HEL, read-out: Antiviral Activity EC50 Davis Strain
  EC50: 7.7 ± 0.9 µM
HEL cells; Table 3 (HCMV experiments)
  Cytotoxicity Cell Morphology MCC: >350 μM
In vitro
  CC50: > 350 µM

## O=C(O)c1cc(Br)ccc1-n1c(-c2ccccc2)nc2ccc(Br)cc2c1=O [compound 1, 5-bromo-2-(6-bromo-4-oxo-2-phenyl-4H-quinazolin-3-yl)-benzoic acid]
[8]
  EC50 HSV-1: 12 µg/mL (≈ 24 µM)
[9]
  EC50 HSV-2: 12 µg/mL (≈ 24 µM)
Vaccinia virus (VACV)
  EC50 vaccinia virus (VACV): 12 µg/mL (≈ 24 µM)

## CCc1nc(-n2c(-c3ccccc3)nc3ccc(Br)cc3c2=O)nc(N)c1-c1ccc(Cl)cc1 [compound 2]
Vaccinia virus
  MIC vaccinia virus: 1.92 µg/mL (≈ 3.6 µM)

## CCOP(=O)(OCC)[C@H]1C[C@H](c2nc3ccc(Br)cc3c(=O)n2C)ON1C (relative stereo) [trans-11j, Diethyl trans-{5-[6-bromo-3-methyl-4-oxo-3,4-dihydroquinazolin-2-yl]-2-methylisoxazolidin-3-yl}phosphonate]
TK+ VZV Strain (OKA)
  EC50: > 4 µM
TK− VZV Strain (07-1)
  EC50: > 4 µM
[1]; [11]
  EC50: > 20 µM
[2]; [12]
  EC50: > 100 µM
Murine leukemia (L1210)
  IC50: 138 ± 19 µM
Human T-lymphocyte (CEM)
  IC50: 128 ± 21 µM
[4]
  IC50: 175 ± 105 µM
[5]
  IC50: > 250 µM
[6]
  Activity against tested viruses (in words): not active
[7]
  Inhibition of proliferation of the tested cell lines (in words): did not inhibit proliferation
HEL cells; Table 2 (VZV experiments)
  Cytotoxicity Cell Morphology MCC: 20 μM
HEL cells; Table 3 (HCMV experiments)
  Cytotoxicity Cell Morphology MCC: 20 μM

## Cc1nc2ccc(Br)cc2c(=O)n1/N=C/c1ccccc1C(F)(F)F [compound 3, 2-methyl-3-(substituted-benzalamino)-4(3H)-quinazolinone]
[10]
  curative effects against TMV: 54%

## Nc1nc2c(ncn2COCCO)c(=O)[nH]1 [Acyclovir]
In vitro
  CC50: > 350 µM

## O=C(N/N=C/c1nc2ccc(I)cc2c(=O)n1-c1cccc(C(F)(F)F)c1)c1ccncc1 [compound 6]
Influenza A virus (H5N1)
  inhibition rate against H5N1: 25%

## Cc1ccc(C(=O)/C=C/c2nc3ccc(I)cc3c(=O)n2-c2cccc(C(F)(F)F)c2)cc1 [compound 4]
Influenza A virus (H5N1)
  inhibition rate against H5N1: 38%

## O=c1[nH]c(=O)n([C@H]2C[C@H](O)[C@@H](CO)O2)cc1/C=C/Br [Brivudin, reference compound]
TK+ VZV Strain (OKA)
  EC50: 0.023 ± 0.008 µM
TK− VZV Strain (07-1)
  EC50: 31.9 ± 16.1 µM
HEL cells; Table 2 (VZV experiments)
  Cytotoxicity Cell Morphology MCC: >300 μM
In vitro
  CC50: > 300 µM

## CCOP(=O)(OCC)[C@H]1C[C@@H](c2nc3ccc(Br)cc3c(=O)[nH]2)ON1C (relative stereo) [cis-11a, Diethyl cis-[5-(6-bromo-4-oxo-3,4-dihydroquinazolin-2-yl)-2-methylisoxazolidin-3-yl]phosphonate]
TK+ VZV Strain (OKA)
  EC50: > 100 µM
TK− VZV Strain (07-1)
  EC50: > 100 µM
[1]; [11]
  EC50: > 100 µM
[2]; [12]
  EC50: 100 µM
Murine leukemia (L1210)
  IC50: > 250 µM
Human T-lymphocyte (CEM)
  IC50: 242 ± 7 µM
[4]
  IC50: > 250 µM
[5]
  IC50: 140 ± 54 µM
[6]
  Activity against tested viruses (in words): not active
[7]
  Inhibition of proliferation of the tested cell lines (in words): did not inhibit proliferation
HEL cells; Table 2 (VZV experiments)
  Cytotoxicity Cell Morphology MCC: >100 μM
HEL cells; Table 3 (HCMV experiments)
  Cytotoxicity Cell Morphology MCC: 20 μM

## CCOP(=O)(OCC)[C@H]1C[C@H](c2nc3ccc(Br)cc3c(=O)n2CC)ON1C (relative stereo) [trans-11k, Diethyl trans-{5-[6-bromo-3-ethyl-4-oxo-3,4-dihydroquinazolin-2-yl]-2-methylisoxazolidin-3-yl}phosphonate]
TK+ VZV Strain (OKA)
  EC50: > 20 µM
TK− VZV Strain (07-1)
  EC50: > 20 µM
[1]; [11]
  EC50: > 20 µM
[2]; [12]
  EC50: 44.7 µM
[6]
  Activity against tested viruses (in words): not active
[7]
  Inhibition of proliferation of the tested cell lines (in words): did not inhibit proliferation
HEL cells; Table 2 (VZV experiments)
  Cytotoxicity Cell Morphology MCC: 100 μM
HEL cells; Table 3 (HCMV experiments)
  Cytotoxicity Cell Morphology MCC: 20 μM

## COc1ncc(-c2ccc3nc(N)n(-c4ccccc4C(F)(F)F)c(=O)c3c2)cc1S(=O)(=O)Nc1ccc(F)cc1F (atropisomer, axis not shown; (aS)) [(aS)-9]
PI4KIIIα
  pIC50 PI4KIIIα: 8.3
